Results taken from patent US20230310634A1, “ANTI-HUMAN VISTA ANTIBODIES AND USE THEREOF” (IMMUNEXT, INC., priority 2020, published 2023).
“Also recorded” adds a separate entry of the source. Counter-ions that a name gives are not always drawn.

Tested on: LPS stimulated human PBMCs
Experiment: In vitro potency of steroid payloads in LPS stimulated human PBMCs (IL-1β, IL-6 ELISA)
Type: cell-based
Details: for IL-1β and IL-6 production / IL-1β production / potency relative to the other compounds of the experiment: 1 ng/mL LPS, 24 hr; for impact of halogenation of the steroid ring on potency: compared with INX-SM-3
[1] = Experiment 1, 1000-1 nM, n=1 donor
[2] = Experiment 2, 1000-1 nM, n=1 donor
[3] = Experiment 6, 1000-0.16 nM, n=1
[4] = Experiment 3, 1000-0.2 nM, n=2 donors
[5] = Experiment 5, 1000-0.5 nM, n=1 donor

With `C[C@]12C=CC(=O)C=C1CC[C@@H]1[C@@H]2[C@@H](O)C[C@@]2(C)[C@H]1C[C@H]1O[C@@H](c3ccc(Cc4cnc(N)s4)cc3)O[C@]12C(=O)CO` [INX-SM-1, (6aR,6bS,7S,8aS,8bS,10R,11aR,12aS,12bS)-10-(4-((2-aminothiazol-5-yl)methyl)phenyl)-7-hydroxy-8b-(2-hydroxyacetyl)-6a,8a-dimethyl-1,2,6a,6b,7,8,8a,8b,11a,12,12a,12b-dodecahydro-4H-naphtho[2′,1′:4,5]indeno[1,2-d][1,3]dioxol-4-one AcOH salt] the “steroid potency as free payloads in LPS-activated human PBMCS (conclusions)” value (“steroid potency as free payloads” below) was “varying degrees of dose dependent steroid potency”, the “IL-1β and IL-6 production” value [1] was “inhibit both IL-1β and IL-6 production” and the IL-1β production [2] was “show inhibition in IL-1β production”.

In the case of `C[C@]12C=CC(=O)C=C1CC[C@@H]1[C@@H]2[C@@H](O)C[C@@]2(C)[C@H]1C[C@H]1O[C@@H](c3ccc(Cc4csc(N)n4)cc3)O[C@]12C(=O)CO` [INX-SM-2, (6aR,6bS,7S,8aS,8bS,10R,11aR,12aS,12bS)-10-(4-((2-aminothiazol-4-yl)methyl)phenyl)-7-hydroxy-8b-(2-hydroxyacetyl)-6a,8a-dimethyl-1,2,6a,6b,7,8,8a,8b,11a,12,12a,12b-dodecahydro-4H-naphtho[2′,1′:4,5]indeno[1,2-d][1,3]dioxol-4-one AcOH salt], the “steroid potency as free payloads” value is reported as “varying degrees of dose dependent steroid potency” and the IL-1β production [3] is reported as “dose-dependent inhibition”.

For `C[C@]12C=CC(=O)C=C1CC[C@@H]1[C@@H]2[C@@H](O)C[C@@]2(C)[C@H]1C[C@H]1O[C@@H](C34CC(Cc5cccc(N)c5)(C3)C4)O[C@]12C(=O)CO` [INX-SM-4, (6aR,6bS,7S,8aS,8bS,10R,11aR,12aS,12bS)-10-(3-(3-aminobenzyl)bicyclo[1.1.1]pentan-1-yl)-7-hydroxy-8b-(2-hydroxyacetyl)-6a,8a-dimethyl-1,2,6a,6b,7,8,8a,8b,11a,12,12a,12b-dodecahydro-4H-naphtho[2′,1′:4,5]indeno[1,2-d][1,3]dioxol-4-one], the “steroid potency as free payloads” value was “varying degrees of dose dependent steroid potency”, the “IL-1β and IL-6 production” value [1] was “inhibit both IL-1β and IL-6 production” and the IL-1β production [2] was “show inhibition in IL-1β production”.

With `C[C@]12C=CC(=O)C=C1CC[C@@H]1[C@@H]2[C@@H](O)C[C@@]2(C)[C@H]1C[C@H]1O[C@@H](c3cnc(Cc4cccc(N)c4)s3)O[C@]12C(=O)CO` [INX-SM-6, (6aR,6bS,7S, 8aS,8bS,10R,11aR,12aS,12bS)-10-(2-(3-aminobenzyl)thiazol-5-yl)-7-hydroxy-8b-(2-hydroxyacetyl)-6a,8a-dimethyl-1,2,6a,6b,7,8,8a,8b, 11a,12,12a,12b-dodecahydro-4H-naphtho[2′,1′:4,5]indeno[1,2-d][1,3]dioxol-4-one] the “steroid potency as free payloads” value was “varying degrees of dose dependent steroid potency” and the IL-1β production [2] was “show inhibition in IL-1β production”.

With `C[C@]12C=CC(=O)C=C1CC[C@@H]1[C@@H]2[C@@H](O)C[C@@]2(C)[C@H]1C[C@H]1O[C@@H](c3ccc(Cc4ncc(N)s4)cc3)O[C@]12C(=O)CO` [INX-SM-7, (6aR,6bS,7S,8aS,8bS,10R,11aR,12aS,12bS)-10-(4-((5-aminothiazol-2-yl)methyl)phenyl)-7-hydroxy-8b-(2-hydroxyacetyl)-6a,8a-dimethyl-1,2,6a,6b,7,8,8a,8b,11a,12,12a,12b-dodecahydro-4H-naphtho[2′,1′:4,5]indeno[1,2-d][1,3]dioxol-4-one] the “steroid potency as free payloads” value was “varying degrees of dose dependent steroid potency” and the IL-1β production [3] was “dose-dependent inhibition”.

`C[C@@]12CCC3=CC(=O)C=C[C@]3(C)[C@H]1[C@@H](O)C[C@@]1(C)[C@H]2C[C@H]2O[C@@H](c3ccc(CC45C6C7C4C4C5C6C74N)cc3)O[C@]21C(=O)CO` (stereo partly drawn) [INX-SM-9, (6aR,6bS,7S,8aS,8bS,10R,11aR,12aS,12bS)-10-(4-((4-aminocuban-1-yl)methyl)phenyl)-7-hydroxy-8b-(2-hydroxyacetyl)-6a,8a-dimethyl-1,2,6a,6b,7,8,8a,8b,11a,12,12a,12b-dodecahydro-4H-naphtho[2′,1′:4,5]indeno[1,2-d][1,3]dioxol-4-one] was tested, and the “steroid potency as free payloads” value was “varying degrees of dose dependent steroid potency” and the IL-1β production [4] was “dose dependent inhibition”.

`C[C@]12C=CC(=O)C=C1CC[C@@H]1[C@@H]2[C@@H](O)C[C@@]2(C)[C@H]1C[C@H]1O[C@@H](c3ccc(CC45CCC(N)(CC4)CC5)cc3)O[C@]12C(=O)CO` [INX-SM-10, (6aR,6bS,7S, 8aS,8bS,11aR,12aS,12bS)-10-(4-((4-aminobicyclo [2.2.2]octan-1-yl)methyl)phenyl)-7-hydroxy-8b-(2-hydroxyacetyl)-6a,8a-dimethyl-1,2,6a,6b,7,8,8a,8b,11a,12,12a,12b-dodecahydro-4H-naphtho[2′,1′:4,5]indeno[1,2-d][1,3]dioxol-4-one] was tested, and the “steroid potency as free payloads” value was “varying degrees of dose dependent steroid potency” and the “IL-1β and IL-6 production” value [5] was “dose dependent inhibition; also recorded: robust inhibition”.

In the case of `C[C@]12C=CC(=O)C=C1CC[C@H]1[C@@H]3C[C@H]4O[C@@H](c5ccc(CC67CC(N)(C6)C7)cc5)O[C@@]4(C(=O)CO)[C@@]3(C)C[C@H](O)[C@@]12F` [INX-SM-13, (6aS,6bR,7S,8aS,8bS,10R,11aR,12aS,12bS)-10-(4-((3-aminobicyclo[1.1.1]pentan-1-yl)methyl)phenyl)-6b-fluoro-7-hydroxy-8b-(2-hydroxyacetyl)-6a,8a-dimethyl-1,2,6a,6b,7,8,8a,8b,11a,12,12a,12b-dodecahydro-4H-naphtho[2′,1′:4,5]indeno[1,2-d][1,3]dioxol-4-one], the “steroid potency as free payloads” value is reported as “varying degrees of dose dependent steroid potency” and the “impact of halogenation of the steroid ring on potency” value (Experiment 6, 1000-0.16 nM) is reported as “did not lead to increased potency”.

For `C[C@]12C=CC(=O)C=C1[C@@H](F)C[C@H]1[C@@H]3C[C@H]4O[C@@H](c5ccc(CC67CC(N)(C6)C7)cc5)O[C@@]4(C(=O)CO)[C@@]3(C)C[C@H](O)[C@@]12F` [INX-SM-24, (2S,6aS,6bR,7S,8aS,8bS,10R,11aR,12aS,12bS)-10-(4-((3-aminobicyclo[1.1.1]pentan-1-yl)methyl)phenyl)-2,6b-difluoro-7-hydroxy-8b-(2-hydroxyacetyl)-6a,8a-dimethyl-1,2,6a,6b,7,8,8a,8b,11a,12,12a,12b-dodecahydro-4H-naphtho[2′,1′:4,5]indeno[1,2-d][1,3]dioxol-4-one], the “steroid potency as free payloads” value was “varying degrees of dose dependent steroid potency” and the “impact of halogenation of the steroid ring on potency” value (Experiment 6, 1000-0.16 nM) was “increased potency over the non-fluorinated INX-SM-3”.

In the case of `C[C@]12C=CC(=O)C=C1CC[C@@H]1[C@@H]2[C@@H](O)C[C@@]2(C)[C@H]1C[C@H]1O[C@@H](c3ccc(CC4COC5(CNC5)C4)cc3)O[C@]12C(=O)CO` (stereo partly drawn) [INX-SM-31, (6aR,6bS,7S,8aS,8bS,11aR,12aS,12bS)-10-(4-((5-oxa-2-azaspiro[3.4]octan-7-yl)methyl)phenyl)-7-hydroxy-8b-(2-hydroxyacetyl)-6a,8a-dimethyl-1,2,6a,6b,7,8,8a,8b,11a,12,12a,12b-dodecahydro-4H-naphtho[2′,1′:4,5]indeno[1,2-d][1,3]dioxol-4-one], the “steroid potency as free payloads” value is reported as “varying degrees of dose dependent steroid potency; also recorded: lowest potency among the R stereoisomers”, the “potency relative to the other compounds of the experiment” value is reported as “least potent compound among these compounds tested” and the IL-1β production [4] is reported as “dose dependent inhibition”.

`C[C@@]12CCC3=CC(=O)C=C[C@]3(C)[C@H]1[C@@H](O)C[C@@]1(C)[C@H]2C[C@H]2O[C@@H](c3ccc(CC4CC5(CC(N)C5)C4)cc3)O[C@]21C(=O)CO` (stereo partly drawn) [INX-SM-32, (6aR,6bS,7S,8aS,8bS,11aR,12aS,12bS)-10-(4-((6-aminospiro[3.3]heptan-2-yl)methyl)phenyl)-7-hydroxy-8b-(2-hydroxyacetyl)-6a,8a-dimethyl-1,2,6a,6b,7,8,8a,8b,11a,12,12a,12b-dodecahydro-4H-naphtho[2′,1′:4,5]indeno[1,2-d][1,3]dioxol-4-one] was tested, and the “steroid potency as free payloads” value was “varying degrees of dose dependent steroid potency” and the “IL-1β and IL-6 production” value (Experiment 4, 500-1 nM, n=2) was “dose dependent inhibition in IL-1β and IL-6 production”.

For `C[C@]12C=CC(=O)C=C1CC[C@@H]1[C@@H]2[C@@H](O)C[C@@]2(C)[C@H]1C[C@H]1O[C@@H](c3ccc(CC4(N)COC4)cc3)O[C@]12C(=O)CO` [INX-SM-33, (6aR,6bS,7S,8aS,8bS,10R,11aR,12aS,12bS)-10-(4-((3-aminooxetan-3-yl)methyl)phenyl)-7-hydroxy-8b-(2-hydroxyacetyl)-6a,8a-dimethyl-1,2,6a,6b,7,8,8a,8b,11a,12,12a,12b-dodeca hydro-4H-naphtho[2′,1′:4,5]indeno[1,2-d][1,3]dioxol-4-one], the “steroid potency as free payloads” value was “varying degrees of dose dependent steroid potency; also recorded: lowest potency among the R stereoisomers”, the “potency relative to the other compounds of the experiment” value was “least potent compound among these compounds tested” and the “IL-1β and IL-6 production” value [5] was “dose dependent inhibition; also recorded: modest inhibition”.

In the case of `C[C@]12C=CC(=O)C=C1CC[C@@H]1[C@@H]2[C@@H](O)C[C@@]2(C)[C@H]1C[C@H]1OC(c3ccc(CC4(N)CC(F)(F)C4)cc3)O[C@]12C(=O)CO` (stereo partly drawn) [INX-SM-35, (6aR,6bS,7S,8aS,8bS,10R,11aR,12aS,12bS)-10-(4-((1-amino-3,3-difluorocyclobutyl)methyl)phenyl)-7-hydroxy-8b-(2-hydroxyacetyl)-6a,8a-dimethyl 1,2,6a,6b,7,8,8a,8b,11a,12,12a,12b-dodecahydro-4H-naphtho[2′,1′:4,5]indeno[1,2-d][1,3]dioxol-4-one], the “steroid potency as free payloads” value is reported as “varying degrees of dose dependent steroid potency” and the IL-1β production [4] is reported as “dose dependent inhibition”.
